These results are taken from publication PMC8251711 (Angewandte Chemie (International Ed. in English), 2021).

In this assay the target is LAT1 (Homo sapiens, UniProt Q01650). The assay can be described thus: [3H]-gabapentin uptake competition assay in LN229 cells. The assay is classed as cell-based. Particulars: read-out: IC50, [3H]-gabapentin uptake competition.
Sequence of LAT1 (Q01650 whole entry): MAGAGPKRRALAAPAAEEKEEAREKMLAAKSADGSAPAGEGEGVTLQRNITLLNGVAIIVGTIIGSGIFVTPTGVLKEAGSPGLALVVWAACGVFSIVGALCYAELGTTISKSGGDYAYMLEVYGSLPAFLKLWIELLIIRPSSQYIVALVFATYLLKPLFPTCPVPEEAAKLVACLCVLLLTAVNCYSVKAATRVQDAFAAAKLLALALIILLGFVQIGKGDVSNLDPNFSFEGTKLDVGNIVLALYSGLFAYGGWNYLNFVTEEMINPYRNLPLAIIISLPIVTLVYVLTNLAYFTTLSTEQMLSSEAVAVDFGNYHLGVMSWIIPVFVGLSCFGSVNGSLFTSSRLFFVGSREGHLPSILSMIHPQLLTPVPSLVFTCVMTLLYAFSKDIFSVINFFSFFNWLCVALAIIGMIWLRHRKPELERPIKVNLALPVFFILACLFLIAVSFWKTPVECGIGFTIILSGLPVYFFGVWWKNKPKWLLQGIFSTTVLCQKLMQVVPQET
Sequence of LAT1 (P08195 102-630 partner): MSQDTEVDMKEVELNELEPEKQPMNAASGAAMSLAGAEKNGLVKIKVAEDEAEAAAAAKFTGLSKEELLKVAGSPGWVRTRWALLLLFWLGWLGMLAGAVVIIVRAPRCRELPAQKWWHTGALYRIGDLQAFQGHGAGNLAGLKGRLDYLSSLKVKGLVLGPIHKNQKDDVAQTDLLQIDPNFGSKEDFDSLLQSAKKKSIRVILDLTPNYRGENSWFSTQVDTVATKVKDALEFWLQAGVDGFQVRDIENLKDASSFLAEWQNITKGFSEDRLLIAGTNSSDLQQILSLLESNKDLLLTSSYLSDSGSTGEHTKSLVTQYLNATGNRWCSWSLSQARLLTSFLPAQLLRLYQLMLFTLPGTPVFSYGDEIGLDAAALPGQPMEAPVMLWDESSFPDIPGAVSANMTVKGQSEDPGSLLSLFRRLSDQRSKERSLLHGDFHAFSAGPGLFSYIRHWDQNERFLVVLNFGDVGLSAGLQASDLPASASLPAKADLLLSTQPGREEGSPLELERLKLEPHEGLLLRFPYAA

Take `Nc1cc(COc2c(Cl)cc(C[C@H](N)C(=O)O)cc2Cl)c2oc(-c3ccccc3)nc2c1` [JPH203]: the IC50 (commonly the concentration at which inhibition is half-maximal) was 0.029 µM.
